Measurements from US20230234931A1, “NON-STEROIDAL ANTI-INFLAMMATORY COMPOUNDS” (University of Houston System, priority 2022, published 2023).

What was measured:
PC-3 cells = assay: Cancer cell PC-3 migration assay (gap size); assay type: cell-based; details: after 39 hours of culture, compared with NS-398
Procedure: FIG. 10A-C. Anti-inflammatory and anti-cancer activities in cell cultural conditions. PC-3 migration assay treated with the lead compound #10. FIG. 10A The representative images of the PC-3 migration at 0 hour (left) and 39 hours (right) with DMSO, NS-398, and #10. FIG. 10B The time-course gap size of the PC-3 migration. The gap size was obtained using NIS-element software (NIKON). n=6. FIG. 10C Quantitative and significant analyses.
One day before the experiment, about 8.4×10^6 of PC-3 cells were cultured in 6-well plates with 2 mL of growth medium. A marker line was drawn on the outside plates to identify viewing spots. The medium was pre-warmed, and each treatment (DMSO, NS-398, and #10) was mixed with the medium. The cells were washed with PBS and replaced with 1.5 mL of medium containing a treatment, and observed at 0, 15, 24, and 39-hour points. NIS-element AR 3.0 (Nikon Instruments Inc.) software was used to take images at different time points with 10× magnification, and to measure gap sizes.
Inflammation is a factor that stimulates cell migration and is associated with a wide range of ailments including cancer (29). Inflammatory PGE2 produced by mPGES-1 has been reported to be directly associated with cancer cell migration and development (30-33). […] After 39 hours of culture, the gaps were measured (FIG. 10A) and quantified (FIG. 10B and FIG. 10C). […]

COX-2-10aa-mPGES-1 = target: T1, COX-2-10aa-mPGES-1 (Homo sapiens, UniProt O14684+P35354); assay: Inhibition of PGE2 production in HEK293 cells expressing Enzymelink COX-2-10aa-mPGES-1; assay type: cell-based; details: HEK-293 cells, 1, 3 and 10 μM, arachidonic acid 0.5 μM, PGE2 by ELISA, compared with NS-398 (FIG. 9)
T1 construct: COX-2 (fusion partner); gene PTGS2, human entry P35354 by own knowledge; expressed in transfected cells; host or cells: HEK293
T1 sequence (P35354+O14684 with tags, fused parts or gaps): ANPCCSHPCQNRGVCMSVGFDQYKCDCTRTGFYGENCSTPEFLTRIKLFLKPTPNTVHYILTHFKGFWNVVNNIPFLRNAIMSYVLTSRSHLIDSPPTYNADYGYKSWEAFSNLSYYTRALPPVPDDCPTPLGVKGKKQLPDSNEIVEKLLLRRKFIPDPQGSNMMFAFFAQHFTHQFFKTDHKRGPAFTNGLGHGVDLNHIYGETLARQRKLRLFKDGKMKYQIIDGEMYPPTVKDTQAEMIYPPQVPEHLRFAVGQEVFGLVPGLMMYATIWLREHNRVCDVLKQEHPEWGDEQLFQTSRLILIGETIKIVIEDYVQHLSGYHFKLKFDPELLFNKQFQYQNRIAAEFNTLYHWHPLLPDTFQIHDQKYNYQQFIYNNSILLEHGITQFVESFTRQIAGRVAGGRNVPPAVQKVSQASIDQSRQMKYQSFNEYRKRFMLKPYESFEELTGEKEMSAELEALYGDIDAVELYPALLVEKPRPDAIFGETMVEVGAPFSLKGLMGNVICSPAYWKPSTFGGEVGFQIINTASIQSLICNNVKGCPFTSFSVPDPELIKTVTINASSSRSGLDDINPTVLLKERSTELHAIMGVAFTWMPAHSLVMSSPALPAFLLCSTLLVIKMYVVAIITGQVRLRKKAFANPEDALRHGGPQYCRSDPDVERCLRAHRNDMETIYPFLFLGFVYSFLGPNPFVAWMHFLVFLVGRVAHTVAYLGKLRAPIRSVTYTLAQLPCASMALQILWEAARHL
Procedure: FIG. 9. Dose response curves for the effects of the synthesized derivatives on mPGES-1-synthesized inflammatory PGE2, compared with COX-2 inhibitor. HEK-293 cells expressing inflammatory PGE-producing Enzymelink, COX-2-10aa-mPGES-1 described previously (11) were treated with increasing concentrations (1 μM, 3 μM, and 10 μM), of the derivatives. Arachidonic acid (0.5 μM) was added to initiate the biosynthesis of PGE2 through COX-2 and mPGES-1 catalysis (11). The produced PGE2 was detected by ELISA (11). COX-2 inhibitor, NS-398 was used as positive control. An unrelated chemical compound (#6) was used as a negative control.
COX linked PG synthase cDNAs of the hybrid enzyme COX-2 C-terminus was linked to the PGES N-terminus with 10 amino acids (COX-2-10aa-PGES) was constructed by a polymerase chain reaction (PCR) cloning approach. The resultant cDNA was sub-cloned into pcDNATM3.1 vectors containing a cytomegalovirus immediate-early promoter (11, 16).
The recombinant enzyme was expressed in HEK293 cells. […] The enzyme expressions were determined by a Western blot analysis. […]
The effect of compounds that inhibited PGE2 production were determined by HPLC. […]
The inhibitory effect on PGE2 production by mPGES-1 was determined by using previously developed HEK293 cells expressing our engineered Enzymelink, COX-2-10aa-mPGES-1.

Compound: 2-[4-(trimethyl) phenyl]-1,3-benzoxazol-5-amine [3-Methyl]
- inhibition of cancer cell migration within the gaps (PC-3 cells): very effective inhibition of cancer cell migration
- inhibition of inflammatory PGE2 production (COX-2-10aa-mPGES-1): able to inhibit inflammatory PGE2 production with very similar dose-response concentrations of the COX-2 inhibitor

Compound: Nc1ccc2oc(-c3ccc(C(F)(F)F)cc3)nc2c1 [3-F, 2-[4-(trifluoromethyl)phenyl]-1,3-benzoxazol-5-amine]
- inhibition of cancer cell migration within the gaps (PC-3 cells): very effective inhibition of cancer cell migration
- inhibition of inflammatory PGE2 production (COX-2-10aa-mPGES-1): able to inhibit inflammatory PGE2 production with very similar dose-response concentrations of the COX-2 inhibitor
